In paper PMC6877910, “Astrocyte-Targeted Transporter-Utilizing Derivatives of Ferulic Acid Can Have Multifunctional Effects Ameliorating Inflammation and Oxidative Stress in the Brain” (Oxidative Medicine and Cellular Longevity, 2019):

Experiments:
[1] = test system: peroxidase activity of cyclooxygenases (COX); experiment: Peroxidase activity of cyclooxygenases in cell lysates (fluorometric kit); format: biochemical; conditions: 100 μM; 30 min; assay does not differentiate COX from LOX
Protocol: A coupled oxidation-reduction fluorometric assay was used to assess the inhibitory effect of compounds (100 μM) together with positive controls on the peroxidase activity of cyclooxygenases (COX) (ab204699 Cyclooxygenase Activity Assay Kit, Abcam, Cambridge, UK). The method has been done and validated according to the manufacturer's protocol. Briefly, studied compounds (100 μM) and the reaction mixture were incubated with the cell lysates at room temperature and the reaction was initiated by adding arachidonic acid/NaOH solution. The fluorescence was read in a kinetic mode after every 15 seconds for 30 minutes by the EnVision plate reader (EnVision, PerkinElmer, Inc., Waltham, MA, USA) at λex 535 nm and λem 587 nm.

mTOR = experiment: Total amount of mTOR (ELISA) in cells; format: cell-based, mouse; conditions: 48 h
Protocol: Enzyme-Linked Immunosorbent Assay (ELISA) kits were used (mTOR SimpleStep ELISA Kit and NFκB p65 Total SimpeStep ELISA Kit, Abcam, Cambridge, UK) to quantify mammalian (or mechanistic) target of rapamycin (mTOR) and transcription factor NF-κB amounts, respectively. […] The control wells were treated with the solvent only (0.5% DMSO). Cells were solubilized using the provided extraction buffer with the kit, incubated on ice for 20 minutes and centrifuged at 18 000 × g for 20 min at 4°C. The supernatants were stored at -80°C till the day of the analysis. Standards and samples were then analyzed following the manufacturer's protocol (ELISA sandwich method) and by reading the absorbance with the EnVision plate reader (EnVision, PerkinElmer, Inc., Waltham, MA, USA) at 450 nm. The results were analyzed as pmol of formed mTOR or NF-κB per mL.

purified human BACE1 = target: T1, purified human BACE1 (Homo sapiens, UniProt P56817); experiment: BACE1 FRET inhibition assay (SensoLyte 520); format: biochemical; conditions: 0.25 μM; 30 min
T1 construct: purchased AnaSpec, Inc., Fremont, CA, USA SensoLyte 520 BACE1 Assay kit (catalogue number not given)
T1 sequence (P56817 46-501): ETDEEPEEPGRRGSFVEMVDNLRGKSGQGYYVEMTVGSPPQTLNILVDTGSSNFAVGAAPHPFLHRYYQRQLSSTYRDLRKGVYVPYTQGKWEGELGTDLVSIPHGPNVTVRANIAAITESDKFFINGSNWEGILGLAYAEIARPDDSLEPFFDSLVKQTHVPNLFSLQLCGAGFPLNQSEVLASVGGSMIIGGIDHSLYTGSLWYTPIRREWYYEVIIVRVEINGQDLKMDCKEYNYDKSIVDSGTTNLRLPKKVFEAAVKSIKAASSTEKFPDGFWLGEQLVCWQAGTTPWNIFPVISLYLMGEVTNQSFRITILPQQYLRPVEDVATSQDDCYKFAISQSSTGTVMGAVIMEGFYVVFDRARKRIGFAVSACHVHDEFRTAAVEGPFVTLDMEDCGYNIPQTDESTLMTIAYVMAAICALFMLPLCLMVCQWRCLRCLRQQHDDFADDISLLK
Excerpt: A fluorometric assay was used to screen the inhibitory effect of the studied compounds on purified human BACE1 using a fluorescence resonance energy transfer (FRET) peptide technique (SensoLyte© 520 BACE1 Assay kit, AnaSpec, Inc., Fremont, CA, USA) according to the manufacturer's protocol. […] The sequence of the FRET peptide has been derived from the β-secretase cleavage site of β-amyloid precursor protein (APP) with Swedish mutation, which enhances β-secretase to process APP resulting in an early onset of AD. Thus, active β-secretase cleaved FRET substrate into two separate fragments resulting in the release of HiLyte™ Fluor 488 fluorescence that was measured by the EnVision plate reader (EnVision, PerkinElmer, Inc., Waltham, MA, USA) at λex 490 nm and λem 520 nm. […] The results were reported as percentages (%), with control sample representing 100% β-secretase activity.

## O=C(O)Cc1ccccc1Nc1c(Cl)cccc1Cl [DCF, diclofenac]
[1]
  Inhibition of peroxidase activity of COX enzymes: 18%

## NCC1(CC(=O)O)CCCCC1 [gabapentin]
mTOR; 100 μM
  Reduction of total amount of mTOR: 46-49%

## CN(C)C(=N)N=C(N)N [metformin]
mTOR; 100 μM
  Reduction of total amount of mTOR: did not affect

## CO[C@H]1C[C@@H]2CC[C@@H](C)[C@@](O)(O2)C(=O)C(=O)N2CCCC[C@H]2C(=O)O[C@H]([C@H](C)C[C@@H]2CC[C@@H](O)[C@H](OC)C2)CC(=O)[C@H](C)/C=C(\C)[C@@H](O)[C@@H](OC)C(=O)[C@H](C)C[C@H](C)/C=C/C=C/C=C/1C [rapamycin]
mTOR; 1 μM
  Reduction of total amount of mTOR: 46-49%

## KTEEISEVN-Sta-VAEF-NH2 [reference compound]
Purified human BACE1
  BACE1 inhibition: ca. 85%
